{
  "source": "patent US11072632B2",
  "about": "“Inhibitors of 17β-HSD1, 17β-HSD3 and 17β-HSD10” (UNIVERSITÉ LAVAL, priority 2011, dated 2021)",
  "key": {"[1]": {"biological_target": "T1, 17β-HSD10 (Homo sapiens, UniProt Q99714)", "T1 construct": "expressed in transfected cells", "T1 sequence (Q99714 1-261)": "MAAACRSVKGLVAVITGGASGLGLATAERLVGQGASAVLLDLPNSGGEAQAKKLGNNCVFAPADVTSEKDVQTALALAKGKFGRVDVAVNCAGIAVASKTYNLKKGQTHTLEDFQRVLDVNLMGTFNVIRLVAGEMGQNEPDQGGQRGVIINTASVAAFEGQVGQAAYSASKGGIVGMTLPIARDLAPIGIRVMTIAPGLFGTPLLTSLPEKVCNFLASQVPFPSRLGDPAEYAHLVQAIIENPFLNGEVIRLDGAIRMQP", "assay": "Inhibition of 17β-HSD10 in stably transfected HEK-293 whole cells (E2 into E1)", "assay_type": "cell-based"}, "[2]": {"biological_target": "T1, 17β-HSD10", "conditions": "read-out: Km of the enzyme for E2 as a substrate; cited from earlier work"}, "[3]": {"tested_on": "ovariectomized (OVX) mice", "assay": "In vivo estrogenic activity (uterotrophic assay) in OVX mice", "set-up": "species or system mouse", "conditions": "OVX mice, s.c. BID, 7 days", "method": "The mice were fed rodent chow and tap water ad libitum. The animals were ovariectomized (OVX) under isoflurane-anaesthesia via bilateral flank incisions and randomly assigned to groups (5 animals by group). Mice in the OVX control group received the vehicle alone (8% ethanol-0.4% methylcellulose) during the 7-day period. The possible estrogenic activity of tested compounds was evaluated after their administration by subcutaneous (s.c.) injection [1, 10 and 100 μg/kg, s.c., twice daily (BID)] as suspension in 8% ethanol-0.4% methylcellulose to OVX female mice for 7 days. On day 8, the mice were sacrificed by cervical dislocation. The uteri and vagina were rapidly removed, freed from fat and connective tissue and weighed. Results are the means±SEM of 5 mice per group."}, "[4]": {"tested_on": "androgen-sensitive (AR+) Shionogi cells", "assay": "Proliferative (androgenic) activity on androgen-sensitive Shionogi cells", "assay_type": "cell-based", "conditions": "0.1 and 1 μM", "method": "The proliferative (androgenic) activity was determined using androgen-sensitive Shionogi cells following a known literature procedure.^54 Inhibitors and reference compounds were tested at two concentrations (0.1 and 1.0 μM). The androgenicity was reported as % cell proliferation (versus the control). The basal cell proliferation (control) was fixed at 100%."}, "[5]": {"biological_target": "T2, 17β-HSD3 (Homo sapiens, UniProt P37058)", "T2 construct": "expressed in transfected cells; host or cells: HEK-293 (homogenate)", "T2 sequence (P37058 1-310)": "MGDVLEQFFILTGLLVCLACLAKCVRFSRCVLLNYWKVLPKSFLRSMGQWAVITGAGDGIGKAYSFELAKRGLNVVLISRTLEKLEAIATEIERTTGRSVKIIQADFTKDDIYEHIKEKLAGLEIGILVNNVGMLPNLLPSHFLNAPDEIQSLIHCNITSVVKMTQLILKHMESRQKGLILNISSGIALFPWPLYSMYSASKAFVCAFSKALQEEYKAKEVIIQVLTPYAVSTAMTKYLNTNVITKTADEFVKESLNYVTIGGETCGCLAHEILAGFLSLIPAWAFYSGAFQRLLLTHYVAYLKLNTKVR", "assay": "Inhibition of 17β-HSD3 in intact HEK-293 cells", "assay_type": "cell-based"}, "[6]": {"biological_target": "T2, 17β-HSD3", "assay": "Inhibition of 17β-HSD3 in homogenated HEK-293 cells", "assay_type": "biochemical"}, "[7]": {"tested_on": "ovariectomized (OVX) BALB/c mice", "assay": "In vivo estrogenicity assay in OVX mice (uterus, vagina weight)", "set-up": "species or system mouse", "conditions": "OVX mice, s.c., 0.02 μg/mouse/day", "method": "Female ovariectomized (OVX) BALB/c mice weighing approximately 20 g were obtained from Charles-River, Inc. (St-Constant, Qc., Canada). The animals were housed 5 per cage. Groups of 5 mice were treated with E1 (0.02 μg in 8% EtOH/92% PG) or 17β-HSD1 inhibitor at 10, 50 and 250 μg (0.1 mL s.c.) daily for 7 days. Animals were killed 24 h after administration of the last dose of compound and uteri and vagina were removed, excised of fat and weighed. Total body weights of mice were also recorded."}, "[8]": {"tested_on": "T-47D tumors", "assay": "Inhibition of E1-stimulated T-47D tumor growth in nude OVX mice (xenograft)", "assay_type": "in vivo, mouse", "method": "Female OVX BALB/c athymic nude mice weighing approximately 20 g were obtained from Charles-River, Inc. (St-Constant, Qc., Canada). The animals were housed 5 per cage. […] T-47D tumor growth was stimulated using 0.1 μg of E1 s.c. per mouse per day for 15 days. From day 16, animals with tumors were randomized in function of tumor volume and separated into three groups. Group 1 (control mice) was treated s.c. with 100 μL of vehicle alone (8% EtOH/92% PG) per mouse per day. Group 2 (E1 0.1 μg) was treated with E1 (0.1 μg/day, s.c. per mouse) during 32 days. Group 3 (E1 0.1 μg+Compound V 250 μg) was treated with E1 (0.1 μg/day) and Compound V (250 μg/day) per mouse in a combined s.c. injection for 32 days. The mice were weighed at start and volumes of tumors were determined by external caliper twice a week and the greatest longitudinal diameter (length) and the greatest transverse diameter (width) were determined. Tumor volume based on caliper measurements was calculated by the modified ellipsoidal formula: Tumor volume=½(length×width^2) (Jensen M M, Jorgensen J T, Binderup T, Kjaer A. Tumor volume in subcutaneous mouse xenografts measured by microCT is more accurate and reproducible than determined by 18F-FDG-microPET or external caliper. BMC Med Imaging 2008; 8:16). At the end of the studies the mice were terminally anaesthetized, final body weights and tumor sizes were determined. Uteri and vagina were removed, excised of fat and weighed (Day J M, Foster P A, Tutill H J, Parsons M F, Newman S P, Chander S K, et al. 17beta-hydroxysteroid dehydrogenase type 1, and not type 12, is a target for endocrine therapy of hormone-dependent breast cancer. Int J Cancer 2008; 122:1931-40; Husen B, Huhtinen K, Poutanen M, Kangas L, Messinger J, Thole H. Evaluation of inhibitors for 17beta-hydroxysteroid dehydrogenase type 1 in vivo in immunodeficient mice inoculated with MCF-7 cells stably expressing the recombinant human enzyme. Mol Cell Endocrinol 2006; 248:109-13; Husen B, Huhtinen K, Saloniemi T, Messinger J, Thole H H, Poutanen M: Human hydroxysteroid (17-beta) dehydrogenase 1 expression enhances estrogen sensitivity of MCF-7 breast cancer cell xenografts. Endocrinology 2006; 147:5333-9; Messinger J, Hirvela L, Husen B, Kangas L, Koskimies P, Pentikainen O, et al. New inhibitors of 17beta-hydroxysteroid dehydrogenase type 1. Mol Cell Endocrinol 2006; 248:192-8)."}, "[9]": {"tested_on": "T-47D cells", "assay": "Inhibition of E1-stimulated T-47D cell proliferation", "assay_type": "cell-based, human", "conditions": "E1 0.1 nM, no inhibitor; control 100%", "method": "Quantification of cell growth was determined by using CellTiter 96®Aqueous Solution Cell Proliferation Assay (Promega, Nepean, ON, Canada) following the manufacturer's instructions. T-47D cells were resuspended with the medium supplemented with insulin (50 ng/mL) and 5% dextran-coated charcoal treated FBS rather than 10% FBS to remove remaining hormones. Aliquots (100 μL) of the cell suspension were seeded in 96-well plates (3000 cells/well). After 48 h, the medium was changed with a new one containing an appropriate concentration of products to be tested and was replaced every 2 days. Cells have grown either in absence or presence of the compounds for 7 days. To determine the proliferative (estrogenic) activity, the estrogen-sensitive T-47D cells were grown in absence (basal cell proliferation was fixed as 100%) or presence of compounds to be tested at 0.5 to 10 μM. The potent estrogen E2 was used as a reference control. […] The cell proliferation without E1±inhibitor (control) was fixed as 100%. To determine the potential antiestrogenic activity of inhibitor Compound V, the T-47D (ER^+) cells were grown in the presence of estrogen E2 (0.1 nM) and pure antiestrogen EM-139 (0.5 μM) or inhibitor Compound V (0.5 μM). The cell proliferation without E2 and tested compounds (control) were fixed as 100%."}},
  "note": "“And” between values parts separate entries of the source, which are not always exact repeats. Identical values can stand only once.",
  "data": [
    {"smiles": "C[C@]12CC[C@@H]3c4ccc(O)cc4CC[C@H]3[C@@H]1CC[C@@H]2O", "note": "[17β-E2 (1), 17β-estradiol]", "values": [
      {"measurement": "IC50", "setting": "[1]", "result": "> 10000", "unit": "nM"},
      {"measurement": "Km", "setting": "[2]", "result": 43, "unit": "µM"},
      {"measurement": "uterine weight", "setting": "[3]; 1 μg/kg", "result": 125, "unit": "mg"},
      {"measurement": "uterine weight", "setting": "[3]; 10 μg/kg", "result": 155, "unit": "mg"},
      {"measurement": "uterine weight", "setting": "[3]; 100 μg/kg", "result": 160, "unit": "mg"}
    ]},
    {"smiles": "CC1CN(S(=O)(=O)c2ccccc2C(F)(F)F)C(C)CN1CC1(O)CCC2(C)C(CCC3C4CCC(=O)C4(C)CCC32)C1", "note": "(stereo not drawn) [Compound 15b, (3α,5α)-3-{[(2ξ,5ξ)-2,5-dimethyl-4-{[2-(trifluoromethyl)phenyl]sulfonyl}piperazin-1-yl]methyl}-3-hydroxyandrostan-17-one]", "values": [
      {"measurement": "Inhibition (%) at 1 μM", "setting": "[1]; [14C]-E2 (1 μM) into [14C]-E1, intact HEK-293 cells, 1 μM", "result": 30, "unit": "%"},
      {"measurement": "proliferative (androgenic) effect", "setting": "[4]", "result": "did not stimulate the proliferation of AR^+ cells"},
      {"measurement": "Intact cells (%) (0.1 μM)", "setting": "[5]; Table 3, 0.1 μM", "result": 84, "unit": "%"},
      {"measurement": "IC50", "setting": "[5]; intact HEK-293 cells overexpressing 17β-HSD3, [14C]-Δ4-dione 50 nM", "result": "6 nM and 5 nM"},
      {"measurement": "fold better inhibitor than reference compound 5", "setting": "[5]; ratio of IC50 values", "result": 8, "unit": "fold"},
      {"measurement": "fold better than unlabelled Δ4-dione used as inhibitor", "setting": "[5]; ratio of IC50 values", "result": 56, "unit": "fold"},
      {"measurement": "Homo (%) (0.01 μM)", "setting": "[6]; Table 3, 0.01 μM", "result": 55, "unit": "%"},
      {"measurement": "Homo (%) (0.1 μM)", "setting": "[6]; Table 3, 0.1 μM", "result": 92, "unit": "%"}
    ]},
    {"smiles": "C[C@]12CC[C@@]3(C[C@@H]1CC[C@@H]1[C@@H]2CC[C@]2(C)C(=O)CC[C@@H]12)CN(Cc1ccccc1)C(=O)O3", "note": "[Compound 17a, (3R,5S,8R,9S,10S,13S,14S)-3′-benzyl-10,13-dimethyltetradecahydro-2′H spiro[cyclopenta[α]phenanthrene-3,5′-[1,3]oxazolidine]-2′,17(2H)-dione]", "values": [
      {"measurement": "proliferative (androgenic) effect", "setting": "[4]", "result": "did not stimulate the proliferation of AR^+ cells"},
      {"measurement": "inhibition at 0.1 µM", "setting": "[5]; HEK293, 1 h, read-out: Intact cells (%) (0.1 μM), Table 4, 0.1 μM", "result": 44, "unit": "%"},
      {"measurement": "inhibition at 0.01 µM", "setting": "[6]; read-out: Homo (%) (0.01 μM), Table 4, 0.01 μM", "result": 21, "unit": "%"},
      {"measurement": "inhibition at 0.1 µM", "setting": "[6]; read-out: Homo (%) (0.1 μM), Table 4, 0.1 μM", "result": 86, "unit": "%"},
      {"measurement": "inhibition at 1 µM", "setting": "[6]; read-out: Homo (%) (1.0 μM), Table 4, 1.0 μM", "result": 93, "unit": "%"}
    ]},
    {"smiles": "C[C@]12CC[C@@H]3c4ccc(O)cc4CC[C@H]3[C@@H]1CCC2=O", "note": "[Compound E1, estrone, reference compound]", "values": [
      {"measurement": "increase in uterine weight compared to OVX-CTR (times)", "setting": "[7]", "result": 2.5},
      {"measurement": "uterine weight", "setting": "[7]", "result": 55, "unit": "mg"},
      {"measurement": "tumor size, % of initial size", "setting": "[8]; E1 0.1 μg/day s.c. alone, 32 days", "result": 136, "unit": "%"},
      {"measurement": "effect on mouse weight", "setting": "[8]; mouse, in vivo", "result": "no effect"},
      {"measurement": "cell growth induced by E1 alone", "setting": "[9]", "result": 250, "unit": "%"}
    ]}
  ]
}
